Results on three compounds are retold here after the kinase profiling compilation of Christmann-Franck et al. (2016).

Structures are written as SMILES.

ACVRL1 (human), sequence (P37023 whole entry, looked up): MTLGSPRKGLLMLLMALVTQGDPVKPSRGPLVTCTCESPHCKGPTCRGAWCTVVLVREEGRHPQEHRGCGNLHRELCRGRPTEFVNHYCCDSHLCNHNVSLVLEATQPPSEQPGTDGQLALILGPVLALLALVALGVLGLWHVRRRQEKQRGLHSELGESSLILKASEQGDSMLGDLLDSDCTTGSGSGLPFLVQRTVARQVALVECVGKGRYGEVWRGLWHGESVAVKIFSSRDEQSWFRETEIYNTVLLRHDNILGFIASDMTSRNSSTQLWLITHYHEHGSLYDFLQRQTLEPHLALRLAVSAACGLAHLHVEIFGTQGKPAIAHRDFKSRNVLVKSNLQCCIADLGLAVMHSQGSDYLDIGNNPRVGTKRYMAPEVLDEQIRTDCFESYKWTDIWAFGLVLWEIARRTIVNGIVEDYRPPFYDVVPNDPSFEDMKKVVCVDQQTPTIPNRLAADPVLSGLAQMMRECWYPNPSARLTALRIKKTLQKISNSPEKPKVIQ
JAK2 JH1 JH2 (human), sequence (O60674 whole entry, looked up): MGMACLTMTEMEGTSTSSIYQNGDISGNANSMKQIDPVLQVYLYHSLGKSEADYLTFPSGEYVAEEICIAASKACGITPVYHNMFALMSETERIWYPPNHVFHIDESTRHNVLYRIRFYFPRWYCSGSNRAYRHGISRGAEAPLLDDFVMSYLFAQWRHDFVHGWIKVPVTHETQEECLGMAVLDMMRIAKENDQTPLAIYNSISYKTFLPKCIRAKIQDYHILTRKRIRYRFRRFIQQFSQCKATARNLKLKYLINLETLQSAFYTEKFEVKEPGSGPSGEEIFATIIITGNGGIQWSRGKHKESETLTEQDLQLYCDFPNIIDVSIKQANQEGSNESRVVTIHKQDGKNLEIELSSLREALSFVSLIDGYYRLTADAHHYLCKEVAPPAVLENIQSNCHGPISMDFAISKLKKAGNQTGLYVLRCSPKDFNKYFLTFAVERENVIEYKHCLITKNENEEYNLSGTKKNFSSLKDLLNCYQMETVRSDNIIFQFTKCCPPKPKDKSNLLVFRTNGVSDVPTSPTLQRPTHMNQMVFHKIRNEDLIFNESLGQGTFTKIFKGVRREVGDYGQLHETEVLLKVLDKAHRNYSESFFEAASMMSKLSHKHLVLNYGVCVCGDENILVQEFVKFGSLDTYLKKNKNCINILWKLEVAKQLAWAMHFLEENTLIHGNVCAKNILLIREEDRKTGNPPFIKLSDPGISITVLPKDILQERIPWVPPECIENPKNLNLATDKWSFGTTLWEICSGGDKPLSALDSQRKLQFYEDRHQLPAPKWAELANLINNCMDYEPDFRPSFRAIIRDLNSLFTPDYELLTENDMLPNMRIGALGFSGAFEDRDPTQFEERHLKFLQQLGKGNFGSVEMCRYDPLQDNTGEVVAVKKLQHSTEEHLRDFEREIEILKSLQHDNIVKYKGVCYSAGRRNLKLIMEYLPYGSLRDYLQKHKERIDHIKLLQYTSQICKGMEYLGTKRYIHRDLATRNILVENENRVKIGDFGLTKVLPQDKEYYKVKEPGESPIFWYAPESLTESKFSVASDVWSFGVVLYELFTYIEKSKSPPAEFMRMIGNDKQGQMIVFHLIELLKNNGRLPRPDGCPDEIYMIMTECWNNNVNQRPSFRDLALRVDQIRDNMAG
CDK3 CCNE1 (human), sequence (P24864 whole entry, looked up): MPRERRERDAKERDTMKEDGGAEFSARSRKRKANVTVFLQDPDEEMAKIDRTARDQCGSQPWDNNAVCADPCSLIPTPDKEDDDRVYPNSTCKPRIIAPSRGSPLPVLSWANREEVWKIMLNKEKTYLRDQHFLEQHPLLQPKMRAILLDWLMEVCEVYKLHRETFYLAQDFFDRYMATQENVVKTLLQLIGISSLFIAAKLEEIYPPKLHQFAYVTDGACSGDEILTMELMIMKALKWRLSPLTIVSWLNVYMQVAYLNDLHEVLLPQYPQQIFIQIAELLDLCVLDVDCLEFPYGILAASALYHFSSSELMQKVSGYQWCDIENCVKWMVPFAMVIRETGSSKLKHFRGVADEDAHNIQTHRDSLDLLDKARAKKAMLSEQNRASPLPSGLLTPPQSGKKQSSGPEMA
CDK3 CCNE1 (human), sequence (Q00526 whole entry, looked up): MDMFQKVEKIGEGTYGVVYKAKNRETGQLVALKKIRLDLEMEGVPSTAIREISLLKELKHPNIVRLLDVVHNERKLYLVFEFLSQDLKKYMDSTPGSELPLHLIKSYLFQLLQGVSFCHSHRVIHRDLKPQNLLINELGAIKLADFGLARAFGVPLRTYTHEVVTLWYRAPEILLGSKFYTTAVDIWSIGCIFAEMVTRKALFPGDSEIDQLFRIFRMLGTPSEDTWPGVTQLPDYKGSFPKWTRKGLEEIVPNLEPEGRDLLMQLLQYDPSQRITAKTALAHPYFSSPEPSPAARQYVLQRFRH

In one assay the target is RPS6KA5 KD2 (human) (UniProt O75582). The assay can be described thus: radiometric filter-binding kinase assay, Kinase HotSpot. The conditions noted are these: compound 0.5 µM; ATP 10 µM.
Usually residual activity stands for the signal under treatment as a percentage of the control signal. As for `CN(C)C[C@H]1CCn2c(c(C3=C(c4cn(C)c5ccccc45)C(=O)NC3=O)c3ccccc32)C1`, the residual activity came out at 24.8%.
The same measure, in the same setting: under `Cn1nc2c3c(cccc31)C(=O)c1ccccc1-2` stands 100%.

In another assay the target is RPS6KA6 KD1 KD2 (human) (UniProt Q9UK32). Described as above. The conditions noted are these: compound 0.5 µM; ATP 10 µM.
As for `CCn1cnc2c(Nc3cccc(Cl)c3)nc(N[C@@H]3CCCC[C@@H]3N)nc21`, the residual activity stood at 75.7%.
For `CN(C)C[C@H]1CCn2c(c(C3=C(c4cn(C)c5ccccc45)C(=O)NC3=O)c3ccccc32)C1`, the residual activity worked out at 2.94%.
The same measure, in the same setting: under `Cn1nc2c3c(cccc31)C(=O)c1ccccc1-2` stands 90.4%.

The target in the next assay is WNK3 (human) (UniProt Q9BYP7). The assay is described as above. Particulars: compound 0.5 µM; ATP 10 µM.
Regarding `CCn1cnc2c(Nc3cccc(Cl)c3)nc(N[C@@H]3CCCC[C@@H]3N)nc21`, the residual activity was determined as 92%.
The same measure, in the same setting: under `CN(C)C[C@H]1CCn2c(c(C3=C(c4cn(C)c5ccccc45)C(=O)NC3=O)c3ccccc32)C1` stands 100%; under `Cn1nc2c3c(cccc31)C(=O)c1ccccc1-2`, 92%.

The next assay deals with CAMKK1 (human) (UniProt Q8N5S9). The description is as above. Particulars: compound 0.5 µM; ATP 10 µM.
`CCn1cnc2c(Nc3cccc(Cl)c3)nc(N[C@@H]3CCCC[C@@H]3N)nc21`: the residual activity was found to be 107%.
Still for that read-out and setting: under `CN(C)C[C@H]1CCn2c(c(C3=C(c4cn(C)c5ccccc45)C(=O)NC3=O)c3ccccc32)C1` stands 116%; under `Cn1nc2c3c(cccc31)C(=O)c1ccccc1-2`, 102%.

Another assay addresses ACVRL1 (human) (UniProt P37023). The description is as above. The conditions noted are these: compound 0.5 µM; ATP 10 µM.
For the compound `CCn1cnc2c(Nc3cccc(Cl)c3)nc(N[C@@H]3CCCC[C@@H]3N)nc21`, the residual activity was 99.9%.
Still for that read-out and setting: under `CN(C)C[C@H]1CCn2c(c(C3=C(c4cn(C)c5ccccc45)C(=O)NC3=O)c3ccccc32)C1` stands 98.5%.
With `Cn1nc2c3c(cccc31)C(=O)c1ccccc1-2`, the residual activity worked out at 102%.

In the next assay the target is MAPK1 (human) (UniProt P28482). The description is as above. Particulars: compound 0.5 µM; ATP 10 µM.
On to `CCn1cnc2c(Nc3cccc(Cl)c3)nc(N[C@@H]3CCCC[C@@H]3N)nc21`, for which the residual activity was 91.7%.
On the same count and under the same terms, under `CN(C)C[C@H]1CCn2c(c(C3=C(c4cn(C)c5ccccc45)C(=O)NC3=O)c3ccccc32)C1` stands 101%; under `Cn1nc2c3c(cccc31)C(=O)c1ccccc1-2`, 91.7%.

A further assay deals with EPHA4 (human) (UniProt P54764). The assay is described as above. The conditions noted are these: compound 0.5 µM; ATP 10 µM.
`CCn1cnc2c(Nc3cccc(Cl)c3)nc(N[C@@H]3CCCC[C@@H]3N)nc21`: the residual activity was 78.5%.
Consider `CN(C)C[C@H]1CCn2c(c(C3=C(c4cn(C)c5ccccc45)C(=O)NC3=O)c3ccccc32)C1`, for which the residual activity came out at 103%.
Same read-out and setting: under `Cn1nc2c3c(cccc31)C(=O)c1ccccc1-2` stands 104%.

The target of a further assay is CLK1 (human) (UniProt P49759). The assay is described as above. The conditions noted are these: compound 0.5 µM; ATP 10 µM.
As for `CCn1cnc2c(Nc3cccc(Cl)c3)nc(N[C@@H]3CCCC[C@@H]3N)nc21`, the residual activity worked out at 89.3%.
Turning to `CN(C)C[C@H]1CCn2c(c(C3=C(c4cn(C)c5ccccc45)C(=O)NC3=O)c3ccccc32)C1`, the residual activity is 105%.
Still for that read-out and setting: under `Cn1nc2c3c(cccc31)C(=O)c1ccccc1-2` stands 92.7%.

A further assay addresses PRKCG (human) (UniProt P05129). The description is as above. The conditions noted are these: compound 0.5 µM; ATP 10 µM.
As to `CCn1cnc2c(Nc3cccc(Cl)c3)nc(N[C@@H]3CCCC[C@@H]3N)nc21`, the residual activity worked out at 95%.
Still for that read-out and setting: the figure for `CN(C)C[C@H]1CCn2c(c(C3=C(c4cn(C)c5ccccc45)C(=O)NC3=O)c3ccccc32)C1` is 6.93%; for `Cn1nc2c3c(cccc31)C(=O)c1ccccc1-2` it is 90.6%.

The target in the next assay is SGK2 (human) (UniProt Q9HBY8). Described as above. The conditions noted are these: compound 0.5 µM; ATP 10 µM.
SGK2 (human), sequence (Q9HBY8 whole entry, looked up): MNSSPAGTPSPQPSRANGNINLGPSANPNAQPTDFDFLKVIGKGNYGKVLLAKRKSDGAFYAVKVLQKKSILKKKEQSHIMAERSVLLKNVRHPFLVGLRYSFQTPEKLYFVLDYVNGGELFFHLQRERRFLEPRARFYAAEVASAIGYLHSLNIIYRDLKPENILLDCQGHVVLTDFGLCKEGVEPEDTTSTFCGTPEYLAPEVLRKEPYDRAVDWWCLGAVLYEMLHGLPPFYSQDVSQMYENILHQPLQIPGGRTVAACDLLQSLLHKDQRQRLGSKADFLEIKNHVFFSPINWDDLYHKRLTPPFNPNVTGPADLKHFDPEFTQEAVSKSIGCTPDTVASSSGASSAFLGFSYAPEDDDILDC
For `CCn1cnc2c(Nc3cccc(Cl)c3)nc(N[C@@H]3CCCC[C@@H]3N)nc21`, the residual activity was found to be 98.2%.
As to `CN(C)C[C@H]1CCn2c(c(C3=C(c4cn(C)c5ccccc45)C(=O)NC3=O)c3ccccc32)C1`, the residual activity stood at 71.7%.
Still for that read-out and setting: the figure for `Cn1nc2c3c(cccc31)C(=O)c1ccccc1-2` is 98.9%.

The next assay has as its target STK33 (human) (UniProt Q9BYT3). The description is as above. The conditions noted are these: compound 0.5 µM; ATP 10 µM.
On to `CCn1cnc2c(Nc3cccc(Cl)c3)nc(N[C@@H]3CCCC[C@@H]3N)nc21`, for which the residual activity stood at 88.9%.
Same read-out and setting: the figure for `CN(C)C[C@H]1CCn2c(c(C3=C(c4cn(C)c5ccccc45)C(=O)NC3=O)c3ccccc32)C1` is 94.8%; for `Cn1nc2c3c(cccc31)C(=O)c1ccccc1-2` it is 81.3%.

The target of a further assay is MAPK12 (human) (UniProt P53778). The description is as above. Particulars: compound 0.5 µM; ATP 10 µM.
MAPK12 (human), sequence (P53778 whole entry, looked up): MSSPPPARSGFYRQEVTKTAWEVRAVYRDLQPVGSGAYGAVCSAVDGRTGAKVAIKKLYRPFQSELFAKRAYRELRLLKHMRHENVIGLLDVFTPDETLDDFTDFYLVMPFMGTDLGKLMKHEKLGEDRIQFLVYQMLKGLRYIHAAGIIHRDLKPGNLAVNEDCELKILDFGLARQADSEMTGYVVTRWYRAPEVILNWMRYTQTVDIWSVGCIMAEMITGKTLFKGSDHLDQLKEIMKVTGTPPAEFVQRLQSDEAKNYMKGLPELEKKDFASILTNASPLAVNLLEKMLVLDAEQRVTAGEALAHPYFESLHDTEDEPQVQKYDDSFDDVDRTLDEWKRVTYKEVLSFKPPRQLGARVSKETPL
`CCn1cnc2c(Nc3cccc(Cl)c3)nc(N[C@@H]3CCCC[C@@H]3N)nc21`: the residual activity is 96.6%.
For the compound `CN(C)C[C@H]1CCn2c(c(C3=C(c4cn(C)c5ccccc45)C(=O)NC3=O)c3ccccc32)C1`, the residual activity came out at 102%.
The same measure, in the same setting: the figure for `Cn1nc2c3c(cccc31)C(=O)c1ccccc1-2` is 93.8%.

The next assay concerns the target DYRK3 (human) (UniProt O43781). The assay is described as above. The conditions noted are these: compound 0.5 µM; ATP 10 µM.
For `CCn1cnc2c(Nc3cccc(Cl)c3)nc(N[C@@H]3CCCC[C@@H]3N)nc21`, the residual activity was 83.7%.
The same measure, in the same setting: under `CN(C)C[C@H]1CCn2c(c(C3=C(c4cn(C)c5ccccc45)C(=O)NC3=O)c3ccccc32)C1` stands 102%; under `Cn1nc2c3c(cccc31)C(=O)c1ccccc1-2`, 129%.

Another assay has as its target CDK3 CCNE1 (human) (UniProt Q00526+P24864). The assay is described as above. Particulars: compound 0.5 µM; ATP 10 µM.
As to `CCn1cnc2c(Nc3cccc(Cl)c3)nc(N[C@@H]3CCCC[C@@H]3N)nc21`, the residual activity came to 49.7%.
For the compound `CN(C)C[C@H]1CCn2c(c(C3=C(c4cn(C)c5ccccc45)C(=O)NC3=O)c3ccccc32)C1`, the residual activity was found to be 62.4%.
Still for that read-out and setting: the figure for `Cn1nc2c3c(cccc31)C(=O)c1ccccc1-2` is 87.5%.

The next assay addresses JAK2 JH1 JH2 (human) (UniProt O60674). The description is as above. Particulars: compound 0.5 µM; ATP 10 µM.
For `CCn1cnc2c(Nc3cccc(Cl)c3)nc(N[C@@H]3CCCC[C@@H]3N)nc21`, the residual activity amounted to 104%.
On the same count and under the same terms, under `CN(C)C[C@H]1CCn2c(c(C3=C(c4cn(C)c5ccccc45)C(=O)NC3=O)c3ccccc32)C1` stands 98.6%; under `Cn1nc2c3c(cccc31)C(=O)c1ccccc1-2`, 95.9%.

Another assay concerns the target TSSK1B (human) (UniProt Q9BXA7). The assay is described as above. The conditions noted are these: compound 0.5 µM; ATP 10 µM.
For the compound `CCn1cnc2c(Nc3cccc(Cl)c3)nc(N[C@@H]3CCCC[C@@H]3N)nc21`, the residual activity worked out at 87.4%.
The same measure, in the same setting: the figure for `CN(C)C[C@H]1CCn2c(c(C3=C(c4cn(C)c5ccccc45)C(=O)NC3=O)c3ccccc32)C1` is 104%.
With `Cn1nc2c3c(cccc31)C(=O)c1ccccc1-2`, the residual activity worked out at 98.4%.

The next assay addresses DYRK1B (human) (UniProt Q9Y463). Described as above. The conditions noted are these: compound 0.5 µM; ATP 10 µM.
In the case of `CCn1cnc2c(Nc3cccc(Cl)c3)nc(N[C@@H]3CCCC[C@@H]3N)nc21`, the residual activity is 94.4%.
Same read-out and setting: under `CN(C)C[C@H]1CCn2c(c(C3=C(c4cn(C)c5ccccc45)C(=O)NC3=O)c3ccccc32)C1` stands 92.2%; under `Cn1nc2c3c(cccc31)C(=O)c1ccccc1-2`, 93.1%.

The next assay deals with MAP3K9 (human) (UniProt P80192). The assay is described as above. The conditions noted are these: compound 0.5 µM; ATP 10 µM.
For the compound `CCn1cnc2c(Nc3cccc(Cl)c3)nc(N[C@@H]3CCCC[C@@H]3N)nc21`, the residual activity came to 54.9%.
Still for that read-out and setting: under `CN(C)C[C@H]1CCn2c(c(C3=C(c4cn(C)c5ccccc45)C(=O)NC3=O)c3ccccc32)C1` stands 90.8%.
With `Cn1nc2c3c(cccc31)C(=O)c1ccccc1-2`, the residual activity amounted to 99.4%.

The target of a further assay is PIM2 (human) (UniProt Q9P1W9). The assay is described as above. Particulars: compound 0.5 µM; ATP 10 µM.
PIM2 (human), sequence (Q9P1W9 whole entry, looked up): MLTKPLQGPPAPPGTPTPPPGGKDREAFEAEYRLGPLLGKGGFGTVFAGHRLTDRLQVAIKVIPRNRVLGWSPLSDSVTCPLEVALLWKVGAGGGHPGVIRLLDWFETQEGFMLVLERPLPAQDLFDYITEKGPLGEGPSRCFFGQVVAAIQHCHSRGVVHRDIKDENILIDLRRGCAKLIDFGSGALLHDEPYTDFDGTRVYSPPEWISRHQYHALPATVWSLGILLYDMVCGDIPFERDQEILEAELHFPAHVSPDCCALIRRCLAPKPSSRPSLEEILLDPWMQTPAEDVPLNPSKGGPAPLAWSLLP
Take `CCn1cnc2c(Nc3cccc(Cl)c3)nc(N[C@@H]3CCCC[C@@H]3N)nc21`: the residual activity stood at 111%.
The same measure, in the same setting: under `CN(C)C[C@H]1CCn2c(c(C3=C(c4cn(C)c5ccccc45)C(=O)NC3=O)c3ccccc32)C1` stands 102%; under `Cn1nc2c3c(cccc31)C(=O)c1ccccc1-2`, 105%.

For a further assay, the target named is CAMK1 (human) (UniProt Q14012). Described as above. The conditions noted are these: compound 0.5 µM; ATP 10 µM.
CAMK1 (human), sequence (Q14012 whole entry, looked up): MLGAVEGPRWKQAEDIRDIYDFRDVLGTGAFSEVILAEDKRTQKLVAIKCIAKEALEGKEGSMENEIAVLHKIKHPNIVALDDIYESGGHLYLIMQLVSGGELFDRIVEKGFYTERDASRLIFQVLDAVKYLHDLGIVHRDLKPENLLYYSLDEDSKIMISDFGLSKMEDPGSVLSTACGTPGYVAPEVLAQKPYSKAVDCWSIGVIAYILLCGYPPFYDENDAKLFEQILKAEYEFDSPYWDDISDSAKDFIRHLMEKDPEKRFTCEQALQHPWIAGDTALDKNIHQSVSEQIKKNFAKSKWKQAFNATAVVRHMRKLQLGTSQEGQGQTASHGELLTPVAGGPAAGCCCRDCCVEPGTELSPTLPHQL
For the compound `CCn1cnc2c(Nc3cccc(Cl)c3)nc(N[C@@H]3CCCC[C@@H]3N)nc21`, the residual activity was 103%.
Same read-out and setting: under `CN(C)C[C@H]1CCn2c(c(C3=C(c4cn(C)c5ccccc45)C(=O)NC3=O)c3ccccc32)C1` stands 105%; under `Cn1nc2c3c(cccc31)C(=O)c1ccccc1-2`, 104%.

The target in another assay is SRC (human) (UniProt P12931). The assay is described as above. The conditions noted are these: compound 0.5 µM; ATP 10 µM.
SRC (human), sequence (P12931 whole entry, looked up): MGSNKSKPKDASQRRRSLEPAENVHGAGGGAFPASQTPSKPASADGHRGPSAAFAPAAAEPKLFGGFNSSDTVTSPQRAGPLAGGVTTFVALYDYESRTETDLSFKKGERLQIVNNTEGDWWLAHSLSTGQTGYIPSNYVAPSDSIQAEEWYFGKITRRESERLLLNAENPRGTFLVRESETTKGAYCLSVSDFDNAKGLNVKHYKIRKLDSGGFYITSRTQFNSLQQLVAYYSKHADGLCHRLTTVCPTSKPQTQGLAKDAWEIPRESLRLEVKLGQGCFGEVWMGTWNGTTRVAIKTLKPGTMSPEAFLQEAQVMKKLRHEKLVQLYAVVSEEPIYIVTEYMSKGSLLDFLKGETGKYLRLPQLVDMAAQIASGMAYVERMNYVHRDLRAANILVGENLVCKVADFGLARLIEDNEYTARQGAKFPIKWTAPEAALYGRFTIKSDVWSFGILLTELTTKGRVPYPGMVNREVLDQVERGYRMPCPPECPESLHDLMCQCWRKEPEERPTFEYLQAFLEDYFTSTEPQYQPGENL
Consider `CCn1cnc2c(Nc3cccc(Cl)c3)nc(N[C@@H]3CCCC[C@@H]3N)nc21`, for which the residual activity came out at 54.7%.
For `CN(C)C[C@H]1CCn2c(c(C3=C(c4cn(C)c5ccccc45)C(=O)NC3=O)c3ccccc32)C1`, the residual activity came to 101%.
Same read-out and setting: the figure for `Cn1nc2c3c(cccc31)C(=O)c1ccccc1-2` is 90.7%.
